From US20250213701A1, “MEDICAMENT FOR TREATING HUMAN TUMOR BASED ON ERF3A-TARGETING PROTEOLYSIS MECHANISM” (SUZHOU DEGEN BIO-MEDICAL CO., LTD., priority 2022, published 2025)

Tests used:
Format in all cases: cell-based, human
[1] = system: PC-3 cells; test: Anti-proliferative toxicity against prostate cancer cell line PC-3 (CCK8); conditions: 3 days
How it was run: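 PC-3 cells (4000/well, pre-cultured 24 h) exposed in triplicate to compound at final 0.00001-1.0 μM for 3 days at 37 °C, 5% CO2. Viability read by CCK8, 1-4 h at 37 °C, absorbance at 450 nm.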

[2] = system: 22Rv1 cells; test: Anti-proliferative toxicity against prostate cancer cell line 22Rv1 (CCK8); conditions: 3 days, CCK8
How it was run: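 22Rv1 cells pre-cultured for 48 h, then exposed to compounds at 0.00001-1.0 μM final, in triplicate, for 3 days. Viability read by CCK8 absorbance at 450 nm after 1-4 h at 37 °C.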

[3] = system: VCaP cells; test: Anti-proliferative toxicity against prostate cancer cell line Vcap (CCK8); conditions: 3 days, CCK8
How it was run: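 VCaP cells (DMEM, 10% FBS) seeded 20000 cells/well, cultured 72 h, then exposed in triplicate to compound at final well concentrations of 0.00001–0.16 μM for 3 days at 37 °C, 5% CO2. Viability by CCK8, 1–4 h at 37 °C, absorbance at 450 nm.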

Compound	IC50 ([1]; Homo sapiens, 72 h) [nM]	IC50 ([2]; Homo sapiens, 72 h) [nM]	IC50 ([3]; Homo sapiens, 72 h) [nM]	IC50 [1] [nM]	IC50 [2] [nM]	IC50 [3] [nM]
C[C@]12C=CC(=O)N[C@@H]1CC[C@@H]1[C@@H]2CC[C@]2(C)[C@@H](C(=O)NCCCCCCNc3cccc4c3C(=O)N(C3CCC(=O)NC3=O)C4=O)CC[C@@H]12 (stereo partly drawn) [C9, N-(6-((4-(2-(3-(2,6-dioxopiperidine))-isoindole-1,3-dione))amino)hexyl)-3-oxo-4-aza-5α-androst-1-ene-17β-carboxamide]	> 1000	> 1000	> 1000	–	–	–
C[C@]12C=CC(=O)N[C@@H]1CC[C@@H]1[C@@H]2CC[C@]2(C)[C@@H](C(=O)Nc3cccc(N[C@H]4CCC[C@@H](Nc5cccc6c5C(=O)N(C5CCC(=O)NC5=O)C6=O)C4)c3)CC[C@@H]12 (stereo partly drawn) [C61, N-(3-(N—(N-(4-(2-(3-(2,6-dioxopiperidine))-isoindole-1,3-dione))-1S,3R-cyclohexanediamine))phenyl)-3-oxo-4-aza-5α-androst-1-ene-17β-carboxamide]	> 1000	> 1000	> 1000	–	–	–
C[C@]12C=CC(=O)N[C@@H]1CC[C@@H]1[C@@H]2CC[C@]2(C)[C@@H](C(=O)Nc3ccc(OCCCNc4cccc5c4C(=O)N(C4CCC(=O)NC4=O)C5=O)cc3)CC[C@@H]12 (stereo partly drawn) [C17, N-(4-((3-((4-(2-(3-(2,6-dioxopiperidine))-isoindole-1,3-dione))amino)propyl)oxy)phenyl)-3-oxo-4-aza-5α-androst-1-ene-17β-carboxamide]	> 1000	> 1000	> 1000	–	–	–
C[C@]12C=CC(=O)N[C@@H]1CC[C@@H]1[C@@H]2CC[C@]2(C)[C@@H](C(=O)Nc3ccc(OCCCCCCNc4ccc5c(c4)C(=O)N(C4CCC(=O)NC4=O)C5=O)cc3)CC[C@@H]12 (stereo partly drawn) [C22, N-(4-((6-((5-(2-(3-(2,6-dioxopiperidine))-isoindole-1,3-dione))amino)hexyl)oxy)phenyl)-3-oxo-4-aza-5α-androst-1-ene-17β-carboxamide]	> 1000	> 1000	> 1000	–	–	–
N-(3-(N—(N-(4-(2-(3-(2,6-dioxopiperidine))-isoindole-1,3-dione))-(1R,4S)-bicyclo[2,2,2]octane-2R,6R-diamine))phenyl)-3-oxo-4-aza-5α-androst-1-ene-17β-carboxamide and N-(3-(N—(N-(4-(2-(3-(2,6-dioxopiperidine))-isoindole-1,3-dione))-(1S,4R)-bicyclo[2,2,2]octane-2R,6R-diamine))phenyl)-3-oxo-4-aza-5α-androst-1-ene-17β-carboxamide [C72]	–	–	–	> 1000	10 to 1000	10 to 1000
C[C@]12C=CC(=O)N[C@@H]1CC[C@@H]1[C@@H]2CC[C@]2(C)[C@@H](C(=O)Nc3cccc(NC4CCC(Nc5cccc6c5C(=O)N(C5CCC(=O)NC5=O)C6=O)CC4)c3)CC[C@@H]12 (stereo partly drawn) [C54, N-(3-((4-((4-(2-(3-(2,6-dioxopiperidine))-isoindole-1,3-dione))amino)cyclohexyl)amino)phenyl)-3-oxo-4-aza-5α-androst-1-ene-17β-carboxamide]	> 1000	> 1000	> 1000	–	–	–
C[C@]12C=CC(=O)N[C@@H]1CC[C@@H]1[C@@H]2CC[C@]2(C)[C@@H](C(=O)Nc3cccc(OCCCCCCNc4cccc5c4C(=O)N(C4CCC(=O)NC4=O)C5=O)c3)CC[C@@H]12 (stereo partly drawn) [C35, N-(3-((6-((4-(2-(3-(2,6-dioxopiperidine))-isoindole-1,3-dione))amino)hexyl)oxy)phenyl)-3-oxo-4-aza-5α-androst-1-ene-17β-carboxamide]	> 1000	> 1000	> 1000	–	–	–
C[C@]12C=CC(=O)N[C@@H]1CC[C@@H]1[C@@H]2CC[C@]2(C)[C@@H](C(=O)NCCCCNc3cccc4c3C(=O)N(C3CCC(=O)NC3=O)C4=O)CC[C@@H]12 (stereo partly drawn) [C5, N-(4-((4-(2-(3-(2,6-dioxopiperidine))-isoindole-1,3-dione))amino)butyl)-3-oxo-4-aza-5α-androst-1-ene-17β-carboxamide]	> 1000	> 1000	> 1000	–	–	–
C[C@]12C=CC(=O)N[C@@H]1CC[C@@H]1[C@@H]2CC[C@]2(C)[C@@H](C(=O)Nc3ccc(OCCCCCNc4cccc5c4C(=O)N(C4CCC(=O)NC4=O)C5=O)cc3)CC[C@@H]12 (stereo partly drawn) [C19, N-(4-((5-((4-(2-(3-(2,6-dioxopiperidine))-isoindole-1,3-dione))amino)pentyl)oxy)phenyl)-3-oxo-4-aza-5α-androst-1-ene-17β-carboxamide]	> 1000	> 1000	> 1000	–	–	–
C[C@]12C=CC(=O)N[C@@H]1CC[C@@H]1[C@@H]2CC[C@]2(C)[C@@H](C(=O)Nc3cccc(N[C@@H]4CCC[C@@H](Nc5cccc6c5CN(C5CCC(=O)NC5=O)C6=O)C4)c3)CC[C@@H]12 (stereo partly drawn) [C62, N-(3-(N—(N-(4-(2-(3-(2,6-dioxopiperidine))-1-oxo-2,3-dihydro-1H-isoindol))-1R,3R-cyclohexanediamine))phenyl)-3-oxo-4-aza-5α-androst-1-ene-17β-carboxamide]	> 1000	> 1000	10 to 1000	–	–	–
C[C@]12C=CC(=O)N[C@@H]1CC[C@@H]1[C@@H]2CC[C@]2(C)[C@@H](C(=O)Nc3cccc(N[C@@H]4COC[C@@H](Nc5cccc6c5C(=O)N(C5CCC(=O)NC5=O)C6=O)C4)c3)CC[C@@H]12 (stereo partly drawn) [C75, N-(3-(N—(N-(4-(2-(3-(2,6-dioxopiperidine))-isoindole-1,3-dione))-tetrahydropyran-3S,5S-diamine))phenyl)-3-oxo-4-aza-5α-androst-1-ene-17β-carboxamide]	10 to 1000	10 to 1000	10 to 1000	–	–	–
C[C@]12C=CC(=O)N[C@@H]1CC[C@@H]1[C@@H]2CC[C@]2(C)[C@@H](C(=O)NCCCCCCCNc3ccc4c(c3)C(=O)N(C3CCC(=O)NC3=O)C4=O)CC[C@@H]12 (stereo partly drawn) [C12, N-(7-((5-(2-(3-(2,6-dioxopiperidine))-isoindole-1,3-dione))amino)heptyl)-3-oxo-4-aza-5α-androst-1-ene-17β-carboxamide]	> 1000	> 1000	> 1000	–	–	–
C[C@]12C=CC(=O)N[C@@H]1CC[C@@H]1[C@@H]2CC[C@]2(C)[C@@H](C(=O)NCCCCNc3ccc4c(c3)C(=O)N(C3CCC(=O)NC3=O)C4=O)CC[C@@H]12 (stereo partly drawn) [C6, N-(4-((5-(2-(3-(2,6-dioxopiperidine))-isoindole-1,3-dione))amino)butyl)-3-oxo-4-aza-5α-androst-1-ene-17β-carboxamide]	> 1000	> 1000	> 1000	–	–	–
C[C@]12C=CC(=O)N[C@@H]1CC[C@@H]1[C@@H]2CC[C@]2(C)[C@@H](C(=O)Nc3ccc(OCCCCCCCCNc4ccc5c(c4)C(=O)N(C4CCC(=O)NC4=O)C5=O)cc3)CC[C@@H]12 (stereo partly drawn) [C26, N-(4-((8-((5-(2-(3-(2,6-dioxopiperidine))-isoindole-1,3-dione))amino)octyl)oxy)phenyl)-3-oxo-4-aza-5α-androst-1-ene-17β-carboxamide]	> 1000	10 to 1000	0.1 to 10	–	–	–
C[C@]12C=CC(=O)N[C@@H]1CC[C@@H]1[C@@H]2CC[C@]2(C)[C@@H](C(=O)NCCNc3cccc4c3C(=O)N(C3CCC(=O)NC3=O)C4=O)CC[C@@H]12 (stereo partly drawn) [C1, N-(2-((4-(2-(3-(2,6-dioxopiperidine))-isoindole-1,3-dione))amino)ethyl)-3-oxo-4-aza-5α-androst-1-ene-17β-carboxamide]	> 1000	> 1000	> 1000	–	–	–
C[C@]12C=CC(=O)N[C@@H]1CC[C@@H]1[C@@H]2CC[C@]2(C)[C@@H](C(=O)Nc3cccc(NC4CCCC(Nc5cccc6c5C(=O)N(C5CCC(=O)NC5=O)C6=O)C4)c3)CC[C@@H]12 (stereo partly drawn) [C58, N-(3-(N—(N-(4-(2-(3-(2,6-dioxopiperidine))-isoindole-1,3-dione))cyclohexanediamine))phenyl)-3-oxo-4-aza-5α-androst-1-ene-17β-carboxamide]	10 to 1000	0.1 to 10	0.1 to 10	–	–	–
C[C@]12C=CC(=O)N[C@@H]1CC[C@@H]1[C@@H]2CC[C@]2(C)[C@@H](C(=O)N3CCC(CN4CCN(c5ccc6c(c5)C(=O)N(C5CCC(=O)NC5=O)C6=O)CC4)CC3)CC[C@@H]12 (stereo partly drawn) [C14, 1-(5-(2-(3-(2,6-dioxopiperidine))-isoindole-1,3-dione))-4-(4-(1-(3-oxo-4-aza-5α-androst-1-ene-17β-formyl)piperidine)methyl)-piperazine]	> 1000	> 1000	> 1000	–	–	–
N-(3-(N—(N-(4-(2-(3-(2,6-dioxopiperidine))-isoindole-1,3-dione))-6S-methyl-1S,3R-cyclohexanediamine))phenyl)-3-oxo-4-aza-5α-androst-1-ene-17β-carboxamide and N-(3-(N—(N-(4-(2-(3-(2,6-dioxopiperidine))-isoindole-1,3-dione))-4R-methyl-1R,3S-cyclohexanediamine))phenyl)-3-oxo-4-aza-5α-androst-1-ene-17β-carboxamide [C70]	–	–	–	10 to 1000	0.1 to 10	0.1 to 10
N-(3-(N—(N-(4-(2-(3-(2,6-dioxopiperidine))-isoindole-1,3-dione))-(1R,5S)-bicyclo[3,2,2]nonane-7R,8R-diamine))phenyl)-3-oxo-4-aza-5α-androst-1-ene-17β-carboxamide and N-(3-(N—(N-(4-(2-(3-(2,6-dioxopiperidine))-isoindole-1,3-dione))-(1S,5R)-bicyclo[3,2,2]nonane-7R,8R-diamine))phenyl)-3-oxo-4-aza-5α-androst-1-ene-17β-carboxamide [C73]	–	–	–	> 1000	10 to 1000	10 to 1000
